Series [1] is described as follows: xn = mol fraction of the nth substance listed. The note with it: 101 kPa, Liquid, x1 = 1; for viscosity: Capillary tube (Ostwald / Ubbelohde) method; for mass density: Pycnometric method.
For series [2] the following is noted: 101.33 kPa, Liquid; for viscosity: Capillary tube (Ostwald / Ubbelohde) method; for mass density: Pycnometric method.

Numbers after ± are expanded uncertainties.

As usually defined, the viscosity is the resistance of a fluid to flow. As a reminder, the mass density is mass per unit of volume. Consider `O` [water] + CC(O)C(=O)[O-].CN(C)C(N)=[N+](C)C, for which the viscosity in series [1] (303.15 K) was 0.8 ± 0.03 mPa·s; in series [1] (308.15 K) it was 0.72 ± 0.03 mPa·s; in series [1] (313.15 K), 0.65 ± 0.03 mPa·s; in series [1] (318.15 K), 0.6 ± 0.1 mPa·s; in series [1] (323.15 K), 0.55 ± 0.02 mPa·s; in series [1] (328.15 K) it was 0.5 ± 0.02 mPa·s. The mass density turned out to be 988 ± 2 kg/m3 in series [1] (323.15 K) and 985.7 ± 2 kg/m3 in series [1] (328.15 K).

Turning to `NCCO` [2-aminoethan-1-ol], the viscosity is reported as 14.55 ± 0.61 mPa·s in series [2] (303.15 K); 11.86 ± 0.5 mPa·s in series [2] (308.15 K); 9.65 ± 0.41 mPa·s in series [2] (313.15 K); 7.91 ± 0.33 mPa·s in series [2] (318.15 K); 6.72 ± 0.28 mPa·s in series [2] (323.15 K); 5.74 ± 0.24 mPa·s in series [2] (328.15 K). In addition, the mass density is on record as 1007.9 ± 2 kg/m3 in series [2] (303.15 K); 1004.2 ± 2 kg/m3 in series [2] (308.15 K); 1000.5 ± 2.1 kg/m3 in series [2] (313.15 K); 996.2 ± 2.1 kg/m3 in series [2] (318.15 K); 992.7 ± 2.1 kg/m3 in series [2] (323.15 K); 988.7 ± 2.1 kg/m3 in series [2] (328.15 K).

Consider `O` [water] + CC(O)C(=O)[O-].[NH3+]CCO, for which the viscosity in series [1] (303.15 K) is 0.8 ± 0.03 mPa·s; in series [1] (308.15 K), 0.72 ± 0.03 mPa·s; in series [1] (313.15 K), 0.65 ± 0.03 mPa·s; in series [1] (318.15 K), 0.6 ± 0.02 mPa·s; in series [1] (323.15 K) it was 0.55 ± 0.02 mPa·s; in series [1] (328.15 K), 0.5 ± 0.02 mPa·s. Moreover, the mass density was found to be 988 ± 2 kg/m3 in series [1] (323.15 K) and 985.7 ± 2 kg/m3 in series [1] (328.15 K).

The values above are taken from the NIST ThermoML archive (doi:10.1021/je3009073).
